The source of these data is US20260209218A1, “3-PHENYLQUINAZOLINONES AS NOVEL ANTI-CANCER THERAPY” (HELMHOLTZ ZENTRUM MÜNCHEN - DEUTSCHES FORSCHUNGSZENTRUM FÜR …, priority 2022, published 2026).

The test system of data set [1] is GPX4 KO human melanoma cells (A375). Nature of the data set: Xenograft subcutaneous tumor model, A375. The class given is in vivo, nude mice. To be noted: FIG. 3B; treatment from day 3 post implantation, 50 mg/kg i.p. Here is the method:
For the xenograft subcutaneous tumor experiments, GPX4^KO A375 cells (5×10^6 cells in 100 μL PBS) were injected subcutaneously into the right flank of 7-week-old female athymic nude mice. After tumors reached a size of approximately 25-100 mm^3, mice were randomized and treated with vehicle or icFSP1 (50 mg/kg, Intonation) by i.p. injections twice per day for the first 4 days and afterward once daily.
(§1) icFSP1 was dissolved in 45% PEG E 300 (Sigma, Cat #91462-1 KG) and 55% PBS (Gibco, Cat #14190094). Tumors were measured by caliper every day and tumor volume was calculated by the following formula: Tumor volume=length×width^2×0.52. When tumor sizes were either larger than 1000 mm^3 at measurement or tumors became necrotic, these tumors were considered to be human endpoints. When tumors became human endpoints, the experiment was stopped at that point and no further experiments were conducted.

Data set [2] deals with Gpx4 KO/Fsp1KO double mutant murine melanoma cells (B16F10) reconstituted with human FSP1. The data set is described as follows: Syngeneic subcutaneous tumor model. The data set is classed as in vivo, C57BL6/J mice. Here is the method:
All mice were obtained from Charles River. For the syngeneic subcutaneous tumor experiments, Gpx4^KO/Fsp1^KO 1B16F10 cells stably overexpressing hFSP1-HA (1×10^6 cells in 100 μL PBS) were injected subcutaneously into the right flank of 7-week-old female C57BL6/J mice. After tumors reached a size of approximately 25-50 mm^3, mice were randomized and treated with vehicle or icFSP1 (50 mg/kg, Intonation) by i.p. injections twice per day for 4-5 days. For generating tumor samples for staining, Gpx4^KO/Fsp1^KO 1B16F10 cells stably expressing hFSP1-WT-HA or hFSP1-Q319K-HA (1×10^6 cells in 100 μL PBS) were injected subcutaneously into the right flank of 7-week-old female C57BL6/J mice. After tumors reached a size of approximately 50-150 mm^3, mice were treated with vehicle or icFSP1 (50 mg/kg, Intonation) by i.p. injections twice per day for 3 days.
as §1

The test system of data set [3] is H460 GPX4 KO cells (a human lung cancer cell line). The data set is described as follows: Xenograft subcutaneous tumor model, H460. To be noted: FIG. 11C; 50 mg/kg i.p. twice per day from day 8. The data set is classed as in vivo, Athymic Nude mice. On the procedure: For the xenograft subcutaneous tumor experiments, GPX4^KO H460 cells (5×10^6 cells in 100 μL PBS) were injected subcutaneously into the right flanks of 6-week-old female athymic nude mice. After tumors reached a size of approximately 100 mm^3, mice were randomized and treated with vehicle or icFSP1 (50 mg/kg, Intonation) by i.p. injections twice per day.
as §1

Data set [4] concerns WT hFSP1 or its mutants S187C, L217R and Q319K. The data set is described as follows: Saturation transfer difference (STD) NMR. The class given is binding. The settings on record: FIG. 9; 5 μM recombinant human FSP1, 100-fold molar excess of compound, 10° C. Here is the method:
Saturation transfer difference (STD) experiments were performed at Bruker Avance III HD spectrometer at 600 MHz ^1H frequency using a H/N/C triple resonance cryogenic probe. Spectra were recorded at 10° C. with 5 μM recombinant human FSP1 (mutant) and 100-fold molar excess of icFSP1 in phosphate-buffer saline with additional 150 mM NaCl, 1% (v/v) DMSO-d6 and 10% (v/v) D2O for deuterium-lock. Saturation time was 2.5 sec and on- and off-frequencies were 0.68 and −17 ppm, respectively. NMR spectra were processed using Topspin 4.0.6 (Bruker).

Data set [5] has as its system Pfa1 Gpx4^KO cells overexpressing FSP1. Nature of the data set: Cell viability assay (AquaBluer), ferroptosis induction. The class given is cell-based. The settings on record: FIG. 1A; rescued by liproxstatin-1. On the procedure:
(§2) Cells were seeded on 96-well plates and cultured overnight. On the next day, the medium was changed to medium containing following compounds: RSL3, ML210, erastin, FIN56, FINO2, BSO, iFSP1, icFSP1, Lip-1, DFO, Fer-1, zVAD, Nec-1s, MCC950, olaparib, STS, TNFa, Smac mimic or nigericin at the indicated concentrations. For TAM and Dox treatment, cells were seeded with compounds at the same time. Cell viability was determined 1 h (for nigericin), 24-48 h (for RSL3, ML210, erastin, FIN56, FINO2, iFSP1, icFSP1, STS, TNFa, Smac mimic, and zVAD) or 72 h (for BSO, icFSP1, TAM, and Dox) after the treatment using AquaBluer (MultiTarget Pharmaceuticals, Cat #6015) as an indicator of viable cells according to the manufacturer's protocols. For apoptosis induction, HT-1080 cells were incubated with different concentrations of STS for 24 h. For necroptosis induction, HT-29 cells were incubated with different concentrations of TNFa with Smac mimic (400 nM), and zVAD (30 μM) for 24 h. […] As readout fluorescence was measured at Ex/Em=540/590 nm using a SpectraMax M5 microplate reader with SoftMax Pro v7 (Molecular devices) after 4 hours of incubation in normal cell culture conditions. The relative cell viability (%) was calculated as follows: (fluorescence (FL) of samples−background)/(FL of appropriate control samples−background)×100.

The test system of another data set is HT-1080 wild type cells. Described as above. The data set is classed as cell-based, human. To be noted: FIG. 1B; rescued by liproxstatin-1. Here is the method:
as §2

The next data set concerns the target T1, hFSP1 (Homo sapiens, UniProt Q9BRQ8).
T1 construct: expressed in transfected cells; host or cells: Gpx4 KO isogenic fibroblasts (Pfa1, mouse) overexpressing hFSP1
T1 sequence (Q9BRQ8 1-373): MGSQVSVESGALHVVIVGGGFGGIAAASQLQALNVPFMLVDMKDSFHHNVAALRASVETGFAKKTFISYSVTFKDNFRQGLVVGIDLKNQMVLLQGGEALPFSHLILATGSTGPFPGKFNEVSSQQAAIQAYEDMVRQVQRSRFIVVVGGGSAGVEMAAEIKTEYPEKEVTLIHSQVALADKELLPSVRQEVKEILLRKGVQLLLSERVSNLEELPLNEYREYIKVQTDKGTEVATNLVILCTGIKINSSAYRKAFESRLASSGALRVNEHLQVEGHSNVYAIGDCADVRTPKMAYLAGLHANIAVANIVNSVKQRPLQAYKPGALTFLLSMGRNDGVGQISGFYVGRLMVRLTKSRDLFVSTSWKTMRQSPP
The data set is described as follows: Dose-response of screening hits, cell survival by Aquabluer in hFSP1 GPX4 KO cells. The class given is cell-based. The settings on record: FSP1 overexpressing cells lacking GPX4. Here is the method: To identify new small molecule inhibitors that induce ferroptosis in FSP1 overexpressing cells lacking GPX4, hFSP1 GPX4 KO as well as FSP1 GPX4 wild type (WT) isogenic fibroblasts were screened using a subtractive high throughput screening (HTS) approach. As such, both cell lines were plated in parallel and screened against HMGU libraries at a fixed concentration of 10 μM. Cell survival was evaluated using the LIVE/DEAD assay Aquabluer. The percentage (%) of viable cells was determined for both wild type (WT) and knockout (KO) cell lines. Hits were considered as compounds that induce ferroptosis in KO but not in WT cells. Subsequently, positive hits were assayed in a dose-response manner to establish EC50 values of respective compounds (see Table 2).

A short description of data set [6]: Microsomal stability, mouse liver microsomes. The class given is in vitro ADME. The settings on record: Balb/c, pH 7.4, 0.42 mg microsomal protein per ml, 37° C., five time points over 40 minutes. Here is the method:
(§3) The objective of this study was to determine metabolic stability of 4 test articles and reference compounds in human and mouse liver microsomes at five time points over 40 minutes using HPLC-MS. Metabolic stability is defined as the percentage of parent compound lost over time in the presence of a metabolically active test system.
(§4) Microsomal incubations were carried out in 96-well plates in 5 aliquots of 30 μL each (one for each time point). Liver microsomal incubation medium comprised of phosphate buffer (100 mM, pH 7.4), MgCl2 (3.3 mM), NADPH (3 mM), glucose-6-phosphate (5.3 mM), glucose-6-phosphate dehydrogenase (0.67 units/ml) with 0.42 mg of liver microsomal protein per ml. In the control reactions, the NADPH-cofactor system was substituted with phosphate buffer. Test compounds (2 μM, final solvent concentration 1.6%) were incubated with microsomes at 37° C., shaking at 100 rpm. Five time points over 40 minutes were analyzed. The reactions were stopped by adding 5 volumes of acetonitrile with internal standard to incubation aliquots, followed by protein sedimentation by centrifuging at 5500 rpm for 5 minutes. Each reaction was performed in duplicates. Supernatants were analyzed using the HPLC system coupled with a tandem mass spectrometer.
(§5) The elimination constant (kel), half-life (t1,2), and intrinsic clearance (Clint) were determined in a plot of In(AUC) versus time, using linear regression analysis:^1

Data set [7] can be described thus: Pharmacokinetics after a single intraperitoneal dose, plasma by LC-MS/MS. The class given is in vivo, male Balb/cAnN mice. To be noted: mouse, IP, 10 mg/kg. Here is the method:
The purpose of this study was to determine the pharmacokinetic characteristics of compound 13 in male Balb/cAnN mice following intraperitoneal (IP) administration. Levels of the test compound were determined by LC-MS/MS in the blood plasma samples over time after a single dose.
Study design, animal selection, handling and treatment were all in accordance with the Enamine PK study protocols and Institutional Animal Care and Use Guidelines (BACUC approval number #HC-PK-10112023). Animal treatment and samples preparation were conducted by the Animal Laboratory personnel at Enamine/Bienta. Male Balb/cAnN mice (10 weeks old, body weight ranged from 19.6 g to 23.3 g and average body weight across all groups 21.0 g, SD=0.9 g) were used in this study. The animals were randomly assigned to the treatment groups before the pharmacokinetic study; all animals were fasted for 4 h before dosing. Six sampling time points (5, 15, 30, 60, 120, and 360 min) were set for this pharmacokinetic study. Each of the time point treatment group included 4 animals. There was also a control group of one vehicle-dosed animal. Dosing was done according to the treatment Schedules outlined in Table 5. Mice were injected IP with 2,2,2-tribromoethanol at the dose of 150 mg/kg prior to drawing the blood. Blood collection was performed from the orbital sinus in microtainers containing K3EDTA. Animals were sacrificed by cervical dislocation after the blood samples collection. Blood samples were centrifuged for 10 min at 3000 rpm. All samples were immediately processed, flash-frozen and stored at −70° C. until subsequent analysis.
Plasma samples (40 μl) were mixed with 200 μl of IS(90) solution. After mixing by pipetting and centrifuging for 4 min at 6000 rpm, 0.25 μl of each supernatant was injected into LC-MS/MS system.
Analyses of plasma samples were conducted by the Bioanalytical Laboratory personnel at Enamine/Bienta. The concentrations of 13 in samples were determined using high performance liquid chromatography/tandem mass spectrometry (HPLC-MS/MS). Shimadzu HPLC system comprised 2 isocratic pumps LC-10ADvp, an autosampler SIL-20AC, a sub-controller FCV-14AH and a degasser DGU-14A. Mass spectrometric analysis was performed using an API 3000 (triple-quadrupole) instrument from AB Sciex (Canada) with an electro-spray (ESI) interface. The data acquisition and system control were performed using Analyst 1.6.3 software from AB Sciex.
The concentrations of the test compound below the lower limit of quantitation (LLOQ=100 ng/ml) were designated as zero. The pharmacokinetic data analysis was performed using noncompartmental, bolus injection or extravascular input analysis models in WinNonlin 5.2 (PharSight). Data below LLOQ were presented as missing to improve the validity of T½ calculations.

Data set [8] is described as follows: Microsomal stability, human liver microsomes. The data set is classed as in vitro ADME. The settings on record: pH 7.4, 0.42 mg microsomal protein per ml, 37° C., five time points over 40 minutes. On the procedure: as §3, §4, §5
In general terms: Liver microsomes are a subcellular fraction often used to study metabolism.

Take `COc1cc(CC(=O)Nc2ccc(-n3c(C)nc4ccccc4c3=O)cc2)cc(OC)c1OC` [icFSP1]: the tumor growth entry in [1] is “inhibited tumor growth in both human and mouse tumors significantly”; in [3], “inhibits tumor growth in vivo”. For the same molecule, the “tumor growth (tumor volume, tumor weight)” value in data set [2] (FIG. 3A, treatment from day 6 post implantation, 50 mg/kg i.p. twice per day) is “inhibited tumor growth in both human and mouse tumors significantly”. Moreover, the “tumor growth, hFSP1 WT versus FSP1-Q319K expressing cells” value in [2] (FIG. 10E, 50 mg/kg i.p. twice per day from day 6) was “inhibits tumor growth of hFSP1 WT but not of FSP1-Q319K expressing cells”. Further, the “binding by STD spectra” value in data set [4] is on record as “show binding of icFSP1”.
As a reminder, the EC50 is the concentration at which the effect is half-maximal. With `COc1cc(CC(=O)Nc2ccc(-n3c(C)nc4ccccc4c3=O)cc2)cc(OC)c1OC` [Compound 1], the “ferroptosis induction (cell death, AquaBluer)” value (in data set [5]; in the data set on HT-1080 wild type cells) was “efficiently induces ferroptosis” throughout. Also, at hFSP1, the EC50 was under 1 µM.
The term microsomal CLint denotes a measure of how fast metabolising enzymes remove a compound, apart from limits set by blood flow. Low values mean greater metabolic stability, high ones faster metabolism. The Cmax is the highest concentration seen after dosing. What is called Tmax is the time from dosing to the highest level. On to `Cc1nc2ccccc2c(=O)n1-c1ccc(NC(=O)Cc2ccccc2)cc1` [Compound 13, N-(4-(2-methyl-4-oxoquinazolin-3(4H)-yl)phenyl)-2-phenylacetamide], for which the intrinsic metabolic clearance (microsomal CLint) at 2 μM in data set [6] was 6 µL/min/mg. The “plasma concentration relative to the EC50 value” in [7] (based on the total drug concentration) is given as 10 fold. In addition, in [7] (male, Balb/cAnN, plasma), the concentration peaked (Cmax) at 10200 ng/mL and the Tmax was 0.25 h. In data set [7] (male, Balb/cAnN, plasma, read-out: AUC0→t = 60 min (AUClast) (converted)), the AUC(0-t) is 30000 ng·h/mL. In addition, in data set [7] (male, Balb/cAnN, plasma, read-out: AUC0→∞ (AUCINF_obs) (converted)), the AUC(0-inf) was 33500 ng·h/mL. Further, the MRT inf in data set [7] (male, Balb/cAnN, plasma, read-out: MRT (MRTinf) (converted)) is 2.52 h. The MRT last in data set [7] (male, Balb/cAnN, plasma, read-out: MRT (MRTlast) (converted)) was 1.78 h. Also, in data set [7] (male, Balb/cAnN, plasma, read-out: T1/2 (HL_Lambda_z)), the half-life stood at 1.9 h. Moreover, the “Kel (Lambda_z)” value in data set [7] (plasma) came out at 0.00608 min⁻¹. In [8], this molecule displayed a microsomal CLint at 2 μM of 12 µL/min/mg. The EC50 at hFSP1 is over 1 µM.
